Tests used:
[1] = tested on: spontaneous IgAN gddY (S-IgAN) mice; test: spontaneous IgAN in gddY mice (S-IgAN) model; format: in vivo
Procedure: (§1) Two complementary mouse models of IgAN—a passive IgAN (P-IgAN) and a spontaneous IgAN in gddY mice (S-IgAN) were used to examine therapeutic effects of LCC18 on renal conditions of IgAN. […] Eight-week-old female C57BL/6 mice were injected with IgA anti-PC intraperitoneally and PnC intravenously for 14 or 28 consecutive days. Treatment with LCC18 (daily dose of 10 mg/kg body weight) dissolved in polyethylene glycol 400 (PEG 400) (Sigma-Aldrich, St. Louis, MO, USA) via an intraperitoneal (IP) route (P-IgAN+LCC18), and another group of IgAN mice was administered vehicle only (PEG 400) as the disease control group (P-IgAN+Vehicle). Mice were killed at days 14 and 28. Age-matched C57BL/6 mice injected with saline (P-WT+Saline) were used as normal controls; (2) a spontaneous IgAN in gddY (S-IgAN) mice, featuring severe glomerular and tubulointerstitial lesions, characterized by mesangial proliferation, and mesangial matrix expansion. LCC18 (S-IgAN+LCC18) or vehicle (S-IgAN+Vehicle) was administered to mice daily beginning at 8 weeks of age and continuing throughout the present invention. The gddY mice were sacrificed at 32 weeks. Age-matched BALB/c mice served as normal controls (S-WT). All animal experiments were conducted with approval of the Institutional Animal Care and Use Committee of the National Defense Medical Center, Taipei, Taiwan, and were conducted in accordance with NIH Guidelines for the Care and Use of Laboratory Animals.
(§2) For the P-IgAN model, the mice received daily at day 7 after disease induction, either LCC18 (10 mg/kg body weight) (P-IgAN+LCC18) or vehicle (P-IgAN+Vehicle) via IP throughout the study. For the S-IgAN model, LCC18 (S-IgAN+LCC18) or vehicle (S-IgAN+Vehicle) was administered to the mice daily throughout the study via IP, beginning at 8 weeks of age. […] This beneficial effect began on day 21 after disease induction and increased until day 28 when mice were sacrificed (FIG. 1C).

[2] = tested on: bone marrow-derived DCs (BMDCs); test: DC activation (CD80 in CD11c+ cells) by flow cytometry in IgA ICs-stimulated BMDCs; format: cell-based; details: LCC18-treated IgA ICs-stimulated BMDCs; FIG. 3A
Procedure: (§3) FIG. 3A-3H depict that LCC18 inhibits activation of DCs and systemic immune responses in IgAN model. The fluorescence intensity of CD80^+ in gated CD11c^+ cells (within gated CD11c^+ cells, grey-filled area created by staining with an isotype-matched control antibody) determined by flow cytometry (FIG. 3A). T-cell proliferation measured by [^3H]thymidine (FIG. 3B). BMDCs were incubated for 24 h with IgA ICs and co-cultured with OT-II CD′ T cells pulsed with OVA peptide. P-IgAN mouse model (FIG. 3C, FIG. 3D, FIG. 3E). S-IgAN mouse model (FIG. 3F, FIG. 3G, FIG. 3H). CD3 T-cell proliferation in splenocytes by [^3H]thymidine uptake (FIG. 3C and FIG. 3F). Numbers of CD4^+CD44^hiCD62L^lo (FIG. 3D and FIG. 3G) and CD8^+CD44^hiCD62L^lo-hi (FIG. 3E and FIG. 3H) memory T cells among splenic cells assessed by flow cytometry. WT, wild type. #Not detectable. BMDCs, bone marrow-derived dendritic cells. Bars show the mean±SD of 7 mice per group. *p<0.05, **p<0.01, ***p<0.005, ****p<0.001. ns, no significant difference. Data of FIG. 3B-FIG. 3H were analyzed using ANOVA (with Dunnett's multiple comparisons test).

[3] = tested on: passively induced IgAN (P-IgAN) mice; test: passively induced IgAN (P-IgAN) mouse model; format: in vivo, C57BL/6 mice
Procedure: as §1, §2

CD4+ T cells = test: OVA-specific T cell proliferation assay (BMDCs co-cultured with OT-II T cells, [3H]thymidine); format: cell-based; details: OT-II T cells pulsed with OVA peptide; FIG. 3B
Procedure: as §3

UUO mice = test: unilateral ureteral obstruction (UUO) model mimicking renal tubulointerstitial lesions; format: in vivo; details: days 7 and 14
Description: To establish Unilateral ureteral obstruction (UUO) model for mimicking renal tubulointerstitial lesions (TILs), the mice (8-12 weeks of age) were anesthetized followed by a lateral incision on the back of the mouse. After the left ureter was exposed, it was tied with a silk suture at two points and permanently ligated. Sham-operated mice, which underwent an identical procedure but without ureteric ligation, were used as sham control. After 7 or 14 days, the mice were euthanized, and then, renal tissues, pelvis urine, and renal draining lymph nodes were collected.
LCC18 (10 mg/kg body weight) was administered intraperitoneally 1 day before (preventive group) or 3 days after (therapeutic group) the induction of UUO, or 1 day after the ligation of renal vessels in this model. Diseased mice that received only polyethylene glycol 400 (PEG 400) (Sigma-Aldrich, St. Louis, MO, USA) daily via intraperitoneal injections were used as the vehicle control group. All animal experiments were performed with the approval of the Institutional Animal Care and Use Committee of the National Defense Medical Center, Taiwan, in compliance with the NIH Guide for the Care and Use of Laboratory Animals.
Renal tissues were fixed in 10% buffered formalin, embedded in paraffin, and 3-μm thick sections were cut for haematoxylin and eosin (H&E) staining. Fifty glomeruli were examined in at least two renal tissue sections per slide by light microscopy at ×400 magnification. The percentage of glomeruli showing proliferation, or glomerular sclerosis was determined.
The quantitative analysis of the data obtained from hematoxylin and eosin (H&E) and Masson's trichrome staining of renal histopathological evaluation was used by quantitative imaging software (Pax-it; Paxcam, Villa Park, IL).
Further, in another embodiment, formalin-fixed and paraffin-embedded renal sections were incubated with primary antibodies followed by biotinylated secondary antibodies and avidin-biotin-peroxidase complex (Dako) for IHC staining.

ASLN mice = test: accelerated, severe lupus nephritis (ASLN) model; format: in vivo, NZB/WF1 mice
Procedure: To establish ASLN model mice, eight-week-old female NZB/WF1 mice (prior to autoantibody production) were given LPS (Sigma, MO, USA) (0.8 mg/kg body weight) twice a week by intraperitoneal injection. Seven days after the first injection of LPS, seven mice each received either LCC18 (10 mg/kg body weight) or vehicle (polyethylene glycol 400) (Sigma) daily via intraperitoneal injections. Another group of age-matched female NZB/WF1 mice were injected with saline and served as normal controls. All mice were sacrificed 5 weeks after induction of the disease. All animal experiments were performed in compliance with the NIH Guidelines for the Care and Use of Laboratory Animals with approval of the Institutional Animal Care and Use Committee of The National Defense Medical Center, Taipei, Taiwan.
Next, an ASLN model in NZB/W F1 mice, which mimics acute onset of severe LN in human, was validated potential therapeutic effects of LCC18 in the present invention. LN was induced in these mice by intermittent LPS injections to simulate SLE patients following bacterial or viral infections believed to act as environmental triggers. LCC18 was administered daily after the onset of the renal condition in ASLN mice (ASLN+LCC18 mice), while ASLN mice that received vehicle only (ASLN+Vehicle mice) were used as disease control mice.
Urine samples were collected for albuminuria assessment using the ratio of urine albumin/urine creatinine (Cr). Serum blood urea nitrogen (BUN) and Cr levels were determined.
On the other hand, renal tissues were fixed in formalin buffer and paraffin-embedded and stained with hematoxylin and eosin (H&E). Scoring of renal pathology was evaluated.
Levels of anti-dsDNA antibody (Alpha Diagnostic International, TX, USA) were measured using commercial ELISA kits.
Reactive oxygen species (ROS) levels in renal tissues were measured by a lucigenin-enhanced chemiluminescence assay.

CKDs' subject = test: summary of effects in kidney and serum of the CKDs' subject; format: in vivo
Description: In summary, the LCC18 attenuates glomerular cell proliferation about 15˜35%, attenuates sclerosis and fibrosis, attenuates crescent formation about 40˜90%, attenuates fibrinoid necrosis about 40˜90% in a kidney of the CKDs' subject.
Further, the LCC18 can regulate renal function and albuminuria, downregulate serum levels of blood urea nitrogen (serum levels of BUN) about 50˜60%, serum levels of creatinine (serum levels of Cr) about 30˜40% and serum levels of IgG anti-dsDNA about 60˜70% of the CKDs' subject.

[4] = in a kidney of the CKDs' subject

`O=c1oc2ccc(-c3ccc(F)cc3F)cc2c(=O)n1-c1cccc(C(F)(F)F)c1` [LCC18, 6-(2,4-difluorophenyl)-3-(3-(trifluoromethyl)phenyl)-2H-benzo[e][1,3]oxazine-2,4(3H)-dione] was tested. Which “serum levels of BUN” value ([1]; S-IgAN+LCC18 vs S-IgAN+Vehicle, daily IP from 8 weeks of age, FIG. 1D) did it give?
Its value is “benefited from treatment”.

And the “serum levels of Cr” value ([1]; S-IgAN+LCC18 vs S-IgAN+Vehicle, daily IP from 8 weeks of age, FIG. 1E)?
The value was “benefited from treatment”.

What about the “increase in splenic number of CD4+CD44hiCD62Llo memory T cells” value ([1]; flow cytometry, FIG. 3G) of the same molecule?
The value was “inhibited”.

And the “increase in splenic number of CD8+CD44hiCD62Llo-hi memory T cells” value ([1]; flow cytometry, FIG. 3H)?
The value was “inhibited”.

What about the “ROS levels in renal tissues” value ([1]; vs S-IgAN+Vehicle, FIG. 2B) of the same molecule?
The value was “Significantly reduced”.

And the “T cell proliferation in splenocytes, [3H] thymidine uptake” value ([1]; vs S-IgAN+Vehicle, FIG. 3F)?
The value was “significantly decreased”.

What about the “urine levels of albumin (urine albumin/Cr ratio)” value ([1]; vs S-IgAN+Vehicle, beginning on week 24, continuing to week 32, FIG. 1F) of the same molecule?
The value was “therapeutic effect was also observed”.

What about the “fluorescence intensity levels of CD11c+CD80+ cells (activation marker for DCs)” value [2] of the same molecule?
Its value is “Significantly decreased”.

And the “serum levels of BUN” value ([3]; P-IgAN+LCC18 vs P-IgAN+Vehicle, 10 mg/kg daily IP from day 7, FIG. 1A)?
The value was “Significantly lower”.

What about the “serum levels of Cr” value ([3]; P-IgAN+LCC18 vs P-IgAN+Vehicle, 10 mg/kg daily IP from day 7, FIG. 1B) of the same molecule?
Its value is “Significantly lower”.

And the “increase in number of CD4+CD44hiCD62Llo memory T cells in the spleen” value ([3]; flow cytometry, FIG. 3D)?
Its value is “inhibited”.

And the “increase in number of CD8+CD44hiCD62Llo-hi memory T cells in the spleen” value ([3]; flow cytometry, FIG. 3E)?
The value was “inhibited”.

What about the “severity of renal lesions (glomerular cell proliferation, sclerosis in glomeruli), H&E” value ([3]; light microscopy, vs P-IgAN+Vehicle, FIG. 1G-1I) of the same molecule?
Its value is “markedly reduced”.

What about the “ROS levels in renal tissues” value ([3]; vs P-IgAN+Vehicle, FIG. 2A) of the same molecule?
Its value is “Significantly reduced”.

What about the “T cell proliferation in splenocytes, [3H] thymidine uptake” value ([3]; vs P-IgAN+Vehicle, FIG. 3C) of the same molecule?
The value was “significantly decreased”.

And the “urine levels of albumin (urine albumin/Cr ratio)” value ([3]; vs P-IgAN+Vehicle, effect began on day 21 and increased until day 28, FIG. 1C)?
The value was “significantly decreased”.

And the “CD4+ T cell proliferation induced by IgA ICs-stimulated BMDCs” value (CD4+ T cells)?
Its value is “inhibited”.

And the “renal fibrotic changes (H&E TILs score, Masson's trichrome fibrotic area)” value (UUO mice; 10 mg/kg IP, vs Vehicle+UUO, FIG. 7A-7D)?
Its value is “greatly improved”.

What about the “increased renal expression of Col-III, IHC” value (UUO mice; vs UUO+Vehicle, FIG. 8) of the same molecule?
Its value is “inhibited”.

What about the “increased renal expression of p-Smad2/3, IHC” value (UUO mice; vs UUO+Vehicle, FIG. 8) of the same molecule?
The value was “inhibited”.

And the “elevated serum levels of BUN” value (ASLN mice; ASLN+LCC18 vs ASLN+Vehicle, 10 mg/kg daily IP, FIG. 4A)?
Its value is “significantly inhibited”.

What about the “elevated serum levels of Cr” value (ASLN mice; ASLN+LCC18 vs ASLN+Vehicle, 10 mg/kg daily IP, FIG. 4B) of the same molecule?
The value was “significantly inhibited”.

What about the “serum anti-dsDNA levels” value (ASLN mice; ELISA, vs ASLN+Vehicle, FIG. 4G) of the same molecule?
The value was “Greatly reduced”.

What about the “CD4+ T cells (CD4+CD44hiCD62Llo T memory cells) in splenocytes” value (ASLN mice; flow cytometry, FIG. 5A) of the same molecule?
Its value is “inhibited”.

What about the “CD8+ T cells (CD8+CD44hiCD62Llo-hi T memory cells) in splenocytes” value (ASLN mice; flow cytometry, FIG. 5B) of the same molecule?
Its value is “inhibited”.

What about the “Treg cell differentiation (CD4+CD25+Foxp3+) in splenocytes” value (ASLN mice; flow cytometry, FIG. 5C) of the same molecule?
Its value is “enhanced”.

And the “renal levels of ROS” value (ASLN mice; lucigenin-enhanced chemiluminescence, vs ASLN+Vehicle, FIG. 6)?
The value was “significantly reduced”.

What about the “albuminuria (urine albumin/urine Cr)” value (ASLN mice; vs ASLN+Vehicle, FIG. 4C) of the same molecule?
The value was “greatly reduced”.

And the “pathological changes including intrinsic cell proliferation and crescent formation, H&E scoring” value (ASLN mice; vs ASLN+Vehicle, FIG. 4D-4F)?
The value was “significantly inhibited”.

And the “downregulation of serum levels of IgG anti-dsDNA” value (CKDs' subject; CKDs' subject)?
Its value is 60˜70%.

What about the “downregulation of serum levels of blood urea nitrogen (BUN)” value (CKDs' subject; CKDs' subject) of the same molecule?
Its value is 50˜60%.

What about the “downregulation of serum levels of creatinine (Cr)” value (CKDs' subject; CKDs' subject) of the same molecule?
The value was 30˜40%.

And the “attenuation of crescent formation” value (CKDs' subject; [4])?
Its value is 40˜90%.

What about the “attenuation of fibrinoid necrosis” value (CKDs' subject; [4]) of the same molecule?
Its value is 40˜90%.

And the “attenuation of glomerular cell proliferation” value (CKDs' subject; [4])?
Its value is 15˜35%.

And the sclerosis and fibrosis (CKDs' subject; [4])?
The sclerosis and fibrosis was “attenuates”.

— patent US12478632B2, “Method for ameliorating progression of renal fibrosis and treating renal fibrosis by 5-(2′,4′-difluorophenyl)-salicylanilide derivatives” (National Defense Medical University, priority 2021, dated 2025)
